# According to PubChem BioAssay AID1918999 (Molecular Pharmacology Branch, DTP, NCI, 2023):
# System: 556581-035-R-J1-PDC complex spheroid growth
# Assay: Anticancer human tumor 556581-035-R-J1-PDC patient-derived ovarian carcinoma cell line growth inhibition [AhR]
# Settings: for viability, T/C: stronger effect = lower value
# How it was run: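 Spheroids combined tumor cells with HUVEC endothelial cells and human MSCs as stroma. AhR antagonists were paired with standard or investigational drugs, each dosed in half-log steps down from near clinical Cmax, or from 10 microM where Cmax was unknown.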
# [1] = curve of first compound, second compound 0.1 µM
# [2] = curve of first compound, second compound 0.316 µM
# [3] = curve of first compound, second compound 1 µM
# [4] = curve of first compound, second compound 3.16 µM
# [5] = curve of first compound, second compound 10 µM
# [6] = second compound 0.1 µM, first compound 0.00949 µM
# [7] = second compound 0.1 µM, first compound 0.03 µM
# [8] = second compound 0.1 µM, first compound 0.0949 µM
# [9] = second compound 0.1 µM, first compound 0.3 µM
# [10] = second compound 0.1 µM, first compound 0.949 µM
# [11] = second compound 0.1 µM, first compound 3 µM
# [12] = second compound 0.316 µM, first compound 0.00949 µM
# [13] = second compound 0.316 µM, first compound 0.03 µM
# [14] = second compound 0.316 µM, first compound 0.0949 µM
# [15] = second compound 0.316 µM, first compound 0.3 µM
# [16] = second compound 0.316 µM, first compound 0.949 µM
# [17] = second compound 0.316 µM, first compound 3 µM
# [18] = second compound 1 µM, first compound 0.00949 µM
# [19] = second compound 1 µM, first compound 0.03 µM
# [20] = second compound 1 µM, first compound 0.0949 µM
# [21] = second compound 1 µM, first compound 0.3 µM
# [22] = second compound 1 µM, first compound 0.949 µM
# [23] = second compound 1 µM, first compound 3 µM
# [24] = second compound 3.16 µM, first compound 0.00949 µM
# [25] = second compound 3.16 µM, first compound 0.03 µM
# [26] = second compound 3.16 µM, first compound 0.0949 µM
# [27] = second compound 3.16 µM, first compound 0.3 µM
# [28] = second compound 3.16 µM, first compound 0.949 µM
# [29] = second compound 3.16 µM, first compound 3 µM
# [30] = second compound 10 µM, first compound 0.00949 µM
# [31] = second compound 10 µM, first compound 0.03 µM
# [32] = second compound 10 µM, first compound 0.0949 µM
# [33] = second compound 10 µM, first compound 0.3 µM
# [34] = second compound 10 µM, first compound 0.949 µM
# [35] = second compound 10 µM, first compound 3 µM
# 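Wherever viability, T/C is given: compound exposure lasted 7 days; 100% = DMSO vehicle control growth.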
smiles,measurement,setting,value
CCN(c1cc(-c2ccc(CN3CCOCC3)cc2)cc(C(=O)NCc2c(C)cc(C)[nH]c2=O)c1C)C1CCOCC1 + CC(CO)NC(=O)c1cc(-c2ccc(Cl)cc2)nn(-c2cnn(C)c2)c1=O,IC50,[1],> 3000 nM
same,IC50,[2],> 3000 nM
same,IC50,[3],> 3000 nM
same,IC50,[4],> 3000 nM
same,IC50,[5],> 3000 nM
same,"viability, T/C",[6],103%
same,"viability, T/C",[7],102%
same,"viability, T/C",[8],94.7%
same,"viability, T/C",[9],94.7%
same,"viability, T/C",[10],102%
same,"viability, T/C",[11],91.8%
same,"viability, T/C",[12],102%
same,"viability, T/C",[13],91.2%
same,"viability, T/C",[14],96.5%
same,"viability, T/C",[15],92.2%
same,"viability, T/C",[16],108%
same,"viability, T/C",[17],91.8%
same,"viability, T/C",[18],106%
same,"viability, T/C",[19],106%
same,"viability, T/C",[20],117%
same,"viability, T/C",[21],105%
same,"viability, T/C",[22],87.8%
same,"viability, T/C",[23],106%
same,"viability, T/C",[24],106%
same,"viability, T/C",[25],99.7%
same,"viability, T/C",[26],90.7%
same,"viability, T/C",[27],95%
same,"viability, T/C",[28],100%
same,"viability, T/C",[29],87.9%
same,"viability, T/C",[30],94.9%
same,"viability, T/C",[31],101%
same,"viability, T/C",[32],113%
same,"viability, T/C",[33],94.6%
same,"viability, T/C",[34],89.8%
same,"viability, T/C",[35],94.8%
Cc1ccccc1N=Nc1ccc(NC(=O)c2ccnn2C)c(C)c1,"viability, T/C",compound 1 µM,99.6% [middle of 20 runs]
same,IC50,"compound alone, run of 06/14/2022",> 10000 nM
CCN(c1cc(-c2ccc(CN3CCOCC3)cc2)cc(C(=O)NCc2c(C)cc(C)[nH]c2=O)c1C)C1CCOCC1 + Cc1ccccc1N=Nc1ccc(NC(=O)c2ccnn2C)c(C)c1,IC50,[1],> 3000 nM
same,IC50,[2],> 3000 nM
same,IC50,[3],> 3000 nM
same,IC50,[4],> 3000 nM
same,IC50,[5],> 3000 nM
same,"viability, T/C",[6],92%
same,"viability, T/C",[7],97%
same,"viability, T/C",[8],85.8%
same,"viability, T/C",[9],91.5%
same,"viability, T/C",[10],90.9%
same,"viability, T/C",[11],86.8%
same,"viability, T/C",[12],95.2%
same,"viability, T/C",[13],98.2%
same,"viability, T/C",[14],88.9%
same,"viability, T/C",[15],85.4%
same,"viability, T/C",[16],86.2%
same,"viability, T/C",[17],81.1%
same,"viability, T/C",[18],81.4%
same,"viability, T/C",[19],85.6%
same,"viability, T/C",[20],88.4%
same,"viability, T/C",[21],82.6%
same,"viability, T/C",[22],82.4%
same,"viability, T/C",[23],89.1%
same,"viability, T/C",[24],84.5%
same,"viability, T/C",[25],88.1%
same,"viability, T/C",[26],87.6%
same,"viability, T/C",[27],73.9%
same,"viability, T/C",[28],91.8%
same,"viability, T/C",[29],78%
same,"viability, T/C",[30],74.9%
same,"viability, T/C",[31],90.3%
same,"viability, T/C",[32],83.8%
same,"viability, T/C",[33],79%
same,"viability, T/C",[34],77%
same,"viability, T/C",[35],73.4%
CC(C)CC(NC(=O)C(Cc1ccccc1)NC(=O)c1cnccn1)B(O)O (configuration not stated) + Cc1cncc(-c2nc(NCCc3c[nH]c4ccccc34)c3ncn(C(C)C)c3n2)c1,IC50,[1],5.84 nM
same,IC50,[2],5.98 nM
same,IC50,[3],6.08 nM
same,IC50,[4],5.93 nM
same,IC50,[5],5.16 nM
same,"viability, T/C","second compound 0.1 µM, first compound 0.000949 µM",96.7%
same,"viability, T/C","second compound 0.1 µM, first compound 0.003 µM",103%
same,"viability, T/C",[6],13.8%
same,"viability, T/C",[7],0.14%
same,"viability, T/C",[8],0.08%
same,"viability, T/C",[9],0.23%
same,"viability, T/C","second compound 0.316 µM, first compound 0.000949 µM",101%
same,"viability, T/C","second compound 0.316 µM, first compound 0.003 µM",113%
same,"viability, T/C",[12],12%
same,"viability, T/C",[13],1.1%
same,"viability, T/C",[14],0.12%
same,"viability, T/C",[15],1.12%
same,"viability, T/C","second compound 1 µM, first compound 0.000949 µM",106%
same,"viability, T/C","second compound 1 µM, first compound 0.003 µM",110%
same,"viability, T/C",[18],13.4%
same,"viability, T/C",[19],0.14%
same,"viability, T/C",[20],0.09%
same,"viability, T/C",[21],0.67%
same,"viability, T/C","second compound 3.16 µM, first compound 0.000949 µM",103%
same,"viability, T/C","second compound 3.16 µM, first compound 0.003 µM",105%
same,"viability, T/C",[24],12.7%
same,"viability, T/C",[25],1.05%
same,"viability, T/C",[26],0.7%
same,"viability, T/C",[27],2.06%
same,"viability, T/C","second compound 10 µM, first compound 0.000949 µM",89.9%
same,"viability, T/C","second compound 10 µM, first compound 0.003 µM",87.8%
same,"viability, T/C",[30],7.45%
same,"viability, T/C",[31],0.99%
same,"viability, T/C",[32],0.21%
same,"viability, T/C",[33],1.28%
Nc1ncn(C2CC(O)C(CO)O2)c(=O)n1 (configuration not stated) + CC(CO)NC(=O)c1cc(-c2ccc(Cl)cc2)nn(-c2cnn(C)c2)c1=O,IC50,[1],> 1000 nM
same,IC50,[2],> 1000 nM
same,IC50,[3],> 1000 nM
same,IC50,[4],> 1000 nM
same,IC50,[5],> 1000 nM
same,"viability, T/C","second compound 0.1 µM, first compound 0.00316 µM",92.5%
same,"viability, T/C","second compound 0.1 µM, first compound 0.01 µM",89.9%
same,"viability, T/C","second compound 0.1 µM, first compound 0.0316 µM",84.9%
same,"viability, T/C","second compound 0.1 µM, first compound 0.1 µM",77.1%
same,"viability, T/C","second compound 0.1 µM, first compound 0.316 µM",78.7%
same,"viability, T/C","second compound 0.1 µM, first compound 1 µM",70.4%
same,"viability, T/C","second compound 0.316 µM, first compound 0.00316 µM",88.4%
same,"viability, T/C","second compound 0.316 µM, first compound 0.01 µM",95%
same,"viability, T/C","second compound 0.316 µM, first compound 0.0316 µM",84.3%
same,"viability, T/C","second compound 0.316 µM, first compound 0.1 µM",78.4%
same,"viability, T/C","second compound 0.316 µM, first compound 0.316 µM",71.9%
same,"viability, T/C","second compound 0.316 µM, first compound 1 µM",72.4%
same,"viability, T/C","second compound 1 µM, first compound 0.00316 µM",85%
same,"viability, T/C","second compound 1 µM, first compound 0.01 µM",104%
same,"viability, T/C","second compound 1 µM, first compound 0.0316 µM",85.3%
same,"viability, T/C","second compound 1 µM, first compound 0.1 µM",81.8%
same,"viability, T/C","second compound 1 µM, first compound 0.316 µM",72.3%
same,"viability, T/C","second compound 1 µM, first compound 1 µM",72.2%
same,"viability, T/C","second compound 3.16 µM, first compound 0.00316 µM",95.4%
same,"viability, T/C","second compound 3.16 µM, first compound 0.01 µM",90.7%
same,"viability, T/C","second compound 3.16 µM, first compound 0.0316 µM",87.3%
same,"viability, T/C","second compound 3.16 µM, first compound 0.1 µM",75.2%
same,"viability, T/C","second compound 3.16 µM, first compound 0.316 µM",70.1%
same,"viability, T/C","second compound 3.16 µM, first compound 1 µM",68.9%
same,"viability, T/C","second compound 10 µM, first compound 0.00316 µM",97.5%
same,"viability, T/C","second compound 10 µM, first compound 0.01 µM",99.6%
same,"viability, T/C","second compound 10 µM, first compound 0.0316 µM",92.3%
same,"viability, T/C","second compound 10 µM, first compound 0.1 µM",81.8%
same,"viability, T/C","second compound 10 µM, first compound 0.316 µM",80%
same,"viability, T/C","second compound 10 µM, first compound 1 µM",77.1%
